Measurements taken from patent US20080161288A1, “COMPOUNDS” (Pfizer Inc., priority 2006, published 2008).

Assays:
[1] = molecular target: T1, bovine beta-2 adrenoceptor (Bos taurus, UniProt Q28044); assay: cAMP assay in CHO cells transfected with the bovine beta-2 adrenoceptor; assay type: cell-based; details: cAMP (DiscoveRx Hit Hunter cAMP II) in CHO cells transfected with bovine beta-2 adrenoceptor, 30 minutes with compound, 0.5 mM IBMX
T1 construct: expressed in transfected cells; host or cells: CHO cells
T1 sequence (Q28044 whole entry): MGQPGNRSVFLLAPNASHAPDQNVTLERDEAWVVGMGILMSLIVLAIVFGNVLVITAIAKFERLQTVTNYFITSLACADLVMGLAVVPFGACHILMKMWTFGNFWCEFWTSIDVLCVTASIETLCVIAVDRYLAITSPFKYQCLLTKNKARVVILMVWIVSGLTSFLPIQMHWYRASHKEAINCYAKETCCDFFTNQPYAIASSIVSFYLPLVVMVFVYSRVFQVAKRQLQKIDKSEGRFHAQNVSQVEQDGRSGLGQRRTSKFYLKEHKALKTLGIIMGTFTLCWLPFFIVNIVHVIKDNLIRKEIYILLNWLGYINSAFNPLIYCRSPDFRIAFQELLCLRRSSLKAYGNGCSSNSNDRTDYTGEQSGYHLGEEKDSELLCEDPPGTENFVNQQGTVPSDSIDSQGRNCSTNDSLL
Procedure: (§1) CHO cells transfected with the bovine or porcine beta-2 adrenceptors were maintained in culture in DMEM/HAMS F12+10% FBS+2 mM glutamine+500 μg/ml geneticin (for the porcine receptor the medium was supplement with 1.5 mM HEPES) at 37° C. with a 5% CO2 atmosphere.
(§2) Cells were plated into 96 well viewplates in medium and incubated overnight at 37° C. with a 5% CO2 atmosphere. The cells were pre-incubated with 0.5 mM IBMX in PBS for 30 minutes prior to incubation with increasing concentrations of experimental compound (5×10^−12 to 10^−5 M) for 30 minutes at 37° C. with a 5% CO2 atmosphere. At the end of the incubation time the compound was removed and the cells assayed for cAMP using the DiscoveRx Hit Hunter cAMP II™ assay kit.
(§3) Duplicate samples were run for each experimental compound and the data generated was analysed using EC50 analysis software in Graphpad Prism.

[2] = molecular target: T2, porcine beta-2 adrenoceptor (Sus scrofa, UniProt Q28997); assay: cAMP assay in CHO cells transfected with the porcine beta-2 adrenoceptor; assay type: cell-based; details: cAMP (DiscoveRx Hit Hunter cAMP II) in CHO cells transfected with porcine beta-2 adrenoceptor, 30 minutes with compound, 0.5 mM IBMX
T2 construct: expressed in transfected cells; host or cells: CHO cells
T2 sequence (Q28997 whole entry): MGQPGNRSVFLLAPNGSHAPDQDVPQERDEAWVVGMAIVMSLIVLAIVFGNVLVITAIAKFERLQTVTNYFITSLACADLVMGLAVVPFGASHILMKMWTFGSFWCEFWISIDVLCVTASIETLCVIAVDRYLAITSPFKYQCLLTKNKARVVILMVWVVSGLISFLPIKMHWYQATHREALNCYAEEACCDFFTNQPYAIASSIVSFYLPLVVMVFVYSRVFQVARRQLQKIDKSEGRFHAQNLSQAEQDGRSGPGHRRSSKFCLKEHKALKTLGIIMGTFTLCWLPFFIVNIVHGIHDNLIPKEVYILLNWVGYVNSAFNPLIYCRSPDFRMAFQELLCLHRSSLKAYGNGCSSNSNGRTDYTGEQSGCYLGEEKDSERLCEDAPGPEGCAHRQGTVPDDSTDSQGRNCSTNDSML
Procedure: as §1, §2, §3

| Compound | EC50 [1] | EC50 [2] |
| --- | --- | --- |
| CC(CCc1cccc(O)c1Cl)N[C@@H]1CCn2c(=O)[nH]c3cccc(c32)[C@H]1O (single isomer, unassigned) [Example 50, 6-{[3-(2-Chloro-3-hydroxyphenyl)-1-methylpropyl]amino}-7-hydroxy-4,5,6,7-tetrahydroimidazo[4,5,1-jk][1]benzazepin-2(1H)-one] | 1.7 nM | 1.3 nM |
| CC(CCc1ccc(NC(=O)C(F)(F)F)cc1)NC1CCn2c(=O)[nH]c3cccc(c32)C1O (single isomer, unassigned) [Example 59] | 10.4 nM | 12.1 nM |
| CC(CCc1ccc2c(c1)CCO2)N[C@@H]1CCn2c(=O)[nH]c3cccc(c32)[C@H]1O (single isomer, unassigned) [Example 3a, 6-{[3-(2,3-Dihydro-1-benzofuran-5-yl)-1-methylpropyl]amino}-7-hydroxy-4,5,6,7-tetrahydroimidazo[4,5,1-jk][1]benzazepin-2(1H)-one] | 34.3 nM | 8.1 nM |
| COc1cccc(CCC(C)N[C@@H]2CCn3c(=O)[nH]c4cccc(c43)[C@H]2O)c1O (single isomer, unassigned) [Example 8b, 7-hydroxy-6-{[3-(2-hydroxy-3-methoxyphenyl)-1-methylpropyl]amino}-4,5,6,7-tetrahydroimidazo[4,5,1-jk][1]benzazepin-2(1H)-one] | 0.7 nM | 1.1 nM |
| CC(CCc1cc(C(F)(F)F)ccc1O)N[C@@H]1CCn2c(=O)[nH]c3cccc(c32)[C@H]1O (mixture of isomers) [Example 31, 7-Hydroxy-6-({3-[2-hydroxy-5-(trifluoromethyl)phenyl]-1-methylpropyl}amino)-4,5,6,7-tetrahydroimidazo[4,5,1-jk][1]benzazepin-2(1H)-one] | 27.2 nM | 8.1 nM |
| CC(/C=C/c1ccccc1F)N[C@@H]1CCn2c(=O)[nH]c3cccc(c32)[C@H]1O (single isomer, unassigned) [Example 40b, 6-{[3-(2-Fluorophenyl)-1-methylprop-2-en-1-yl]amino}-7-hydroxy-4,5,6,7-tetrahydroimidazo[4,5,1-jk][1]benzazepin-2(1H)-one] | 33.2 nM | 18 nM |
| CC(CCc1cc(F)c(F)cc1O)N[C@@H]1CCn2c(=O)[nH]c3cccc(c32)[C@H]1O (mixture of isomers) [Example 11a, 6-{[3-(4,5-Difluoro-2-hydroxyphenyl)-1-methylpropyl]amino}-7-hydroxy-4,5,6,7-tetrahydroimidazo[4,5,1-jk][1]benzazepin-2(1H)-one] | 1.21 nM | 1.15 nM |
| CC(CCc1ccc(C(=O)NC2CC2)cc1)NC1CCn2c(=O)[nH]c3cccc(c32)C1O (single isomer, unassigned) [Example 64, N-Cyclopropyl-4-[3-{[7-hydroxy-2-oxo-1,2,4,5,6,7-hexahydroimidazo[4,5,1-jk][1]benzazepin-6-yl]amino}butyl]benzamide] | 46.4 nM | 42.9 nM |
| CC(CCc1c(Cl)ccc(O)c1Cl)NC1CCn2c(=O)[nH]c3cccc(c32)C1O (single isomer, unassigned) [Example 55] | 4.3 nM | 2.7 nM |
| Cc1ccccc1CCC(C)NC1CCn2c(=O)[nH]c3cccc(c32)C1O (stereo not shown) [Example 13a, 7-hydroxy-6-{[1-Methyl-3-(2-methylphenyl)propyl]amino}-4,5,6,7-tetrahydroimidazo[4,5,1-jk][1]benzazepin-2(1H)-one] | 4.3 nM | 3.9 nM |
| CC(CCc1ccc(F)cc1)N[C@@H]1CCn2c(=O)[nH]c3cccc(c32)[C@H]1O (mixture of isomers) [Example 23, 6-{[3-(4-Fluorophenyl)-1-methylpropyl]amino}-7-hydroxy-4,5,6,7-tetrahydroimidazo[4,5,1-jk][1]benzazepin-2(1H)-one] | 15.8 nM | 10.5 nM |
| CCC(=O)Nc1cccc(CCC(C)NC2CCn3c(=O)[nH]c4cccc(c43)C2O)c1 (single isomer, unassigned) [Example 61, N-{3-[3-{[7-Hydroxy-2-oxo-1,2,4,5,6,7-hexahydroimidazo[4,5,1-jk][1]benzazepin-6-yl]amino}butyl]phenyl}propanamide] | 12 nM | 12.5 nM |
| CC(CCc1ccc(F)cc1O)N[C@@H]1CCn2c(=O)[nH]c3cccc(c32)[C@H]1O (mixture of isomers) [Example 24, 6-{[3-(4-Fluoro-2-hydroxyphenyl)-1-methylpropyl]amino}-7-hydroxy-4,5,6,7-tetrahydroimidazo[4,5,1-jk][1]benzazepin-2(1H)-one] | 2.7 nM | 4.2 nM |
| CC(CCc1cccc(C(=O)O)c1)N[C@@H]1CCn2c(=O)[nH]c3cccc(c32)[C@H]1O (single isomer, unassigned) [Example 53] | 167 nM | 78.8 nM |
| CC(CCc1ccc(NS(=O)(=O)C(F)(F)F)cc1)NC1CCn2c(=O)[nH]c3cccc(c32)C1O (single isomer, unassigned) [Example 69, 1,1,1-Trifluoro-N-{4-[3-{[7-hydroxy-2-oxo-1,2,4,5,6,7-hexahydroimidazo[4,5,1-jk][1]benzazepin-6-yl]amino}butyl]phenyl}methanesulfonamide] | 234 nM | 50.3 nM |
| C[C@H](CCc1cccc(N)c1)N[C@@H]1CCn2c(=O)[nH]c3cccc(c32)[C@H]1O (single isomer, unassigned) [Example 46, 6-{[3-(3-Aminophenyl)-1-methylpropyl]amino}-7-hydroxy-4,5,6,7-tetrahydroimidazo[4,5,1-jk][1]benzazepin-2(1H)-one] | 33.8 nM | 28.9 nM |
| CC(CCc1ccc2c(c1)OCO2)NC1CCn2c(=O)[nH]c3cccc(c32)C1O (stereo not shown) [Example 12, 6-{[3-(1,3-Benzodioxol-5-yl)-1-methylpropyl]amino}-7-hydroxy-4,5,6,7-tetrahydroimidazo[4,5,1-jk][1]benzazepin-2(1H)-one] | 23.1 nM | 11.7 nM |
| CC(CCc1cc(Cl)cc(Cl)c1O)N[C@@H]1CCn2c(=O)[nH]c3cccc(c32)[C@H]1O (mixture of isomers) [Example 25, 6-{[3-(3,5-Dichloro-2-hydroxyphenyl)-1-methylpropyl]amino}-7-hydroxy-4,5,6,7-tetrahydroimidazo[4,5,1-jk][1]benzazepin-2(1H)-one] | 2.2 nM | 2.7 nM |
| CC(CCc1ccccc1OC(C)C)NC1CCn2c(=O)[nH]c3cccc(c32)C1O (stereo not shown) [Example 35, 7-Hydroxy-6-{[3-(2-isopropoxyphenyl)-1-methylpropyl]amino}-4,5,6,7-tetrahydroimidazo[4,5,1-jk][1]benzazepin-2(1H)-one] | 7.3 nM | 1.8 nM |
| Cc1cccc(CCC(C)N[C@@H]2CCn3c(=O)[nH]c4cccc(c43)[C@H]2O)c1O (mixture of isomers) [Example 17, 7-Hydroxy-6-{[3-(2-hydroxy-3-methylphenyl)-1-methylpropyl]amino}-4,5,6,7-tetrahydroimidazo[4,5,1-jk][1]benzazepin-2(1H)-one] | 3.3 nM | 3 nM |
| CC(CCc1ccc(O)c(F)c1F)NC1CCn2c(=O)[nH]c3cccc(c32)C1O (single isomer, unassigned) [Example 37, 6-{[3-(2,3-Difluoro-4-hydroxyphenyl)-1-methylpropyl]amino}-7-hydroxy-4,5,6,7-tetrahydroimidazo[4,5,1-jk][1]benzazepin-2(1H)-one] | 2.8 nM | 1.9 nM |
| CC(CCc1cc(Br)cc(Br)c1O)N[C@@H]1CCn2c(=O)[nH]c3cccc(c32)[C@H]1O (mixture of isomers) [Example 47, 6-{[3-(3,5-Dibromo-2-hydroxyphenyl)-1-methylpropyl]amino}-7-hydroxy-4,5,6,7-tetrahydroimidazo[4,5,1-jk][1]benzazepin-2(1H)-one] | > 200 nM | > 300 nM |
| CC(CCc1ccc(Cl)cc1Cl)N[C@@H]1CCn2c(=O)[nH]c3cccc(c32)[C@H]1O (mixture of isomers) [Example 29, 6-{[3-(2,4-Dichlorophenyl)-1-methylpropyl]amino}-7-hydroxy-4,5,6,7-tetrahydroimidazo[4,5,1-jk][1]benzazepin-2(1H)-one] | 6.9 nM | 6.4 nM |
| CC(CCc1ccc(O)cc1)N[C@@H]1CCn2c(=O)[nH]c3cccc(c32)[C@H]1O (single isomer, unassigned) [Example 2b, 7-Hydroxy-6-{[3-(4-hydroxyphenyl)-1-methylpropyl]amino}-4,5,6,7-tetrahydroimidazo[4,5,1-jk][1]benzazepin-2(1H)-on] | 298 nM | 121 nM |
| CC(CCc1cc(F)cc(Cl)c1O)N[C@@H]1CCn2c(=O)[nH]c3cccc(c32)[C@H]1O (mixture of isomers) [Example 27, 6-{[3-(3-Chloro-5-fluoro-2-hydroxyphenyl)-1-methylpropyl]amino}-7-hydroxy-4,5,6,7-tetrahydroimidazo[4,5,1-jk][1]benzazepin-2(1H)-one] | 0.6 nM | 2.2 nM |
| CC(CCc1ccccc1NS(C)(=O)=O)N[C@@H]1CCn2c(=O)[nH]c3cccc(c32)[C@H]1O (mixture of isomers) [Example 33, N-[2-(3-{[7-Hydroxy-2-oxo-1,2,4,5,6,7-hexahydroimidazo[4,5,1-jk][1]benzazepin-6-yl]amino}butyl)phenyl]methanesulfonamide] |  | 11.9 nM |
| CC(CCc1ccc(NS(=O)(=O)c2ccccc2)cc1)NC1CCn2c(=O)[nH]c3cccc(c32)C1O (single isomer, unassigned) [Example 67, N-{4-[3-{[7-Hydroxy-2-oxo-1,2,4,5,6,7-hexahydroimidazo[4,5,1-jk][1]benzazepin-6-yl]amino}butyl]phenyl}benzenesulfonamide] | 156 nM |  |
